Test results taken from article PMC7156458, “Synthetic biology based construction of biological activity-related library of fungal decalin-containing diterpenoid pyrones” (Nature Communications, 2020).

Biological target: Aβ42 (Homo sapiens, UniProt P05067)
Assay: Th-T (thioflavin-T) assay of Aβ42 aggregation
Format: biochemical
Conditions: for Th-T fluorescence of Aβ42 (sheet Fig. 7a), mean of three wells: head suffix _50 (concentration 50); for Th-T assay plate reading, mean of three wells (Supplementary Fig. 47): source data, Ab alone and No Ab as controls; for Th-T fluorescence, mean of three wells: Supplementary Fig. 47 source data

Sequence of Aβ42 (P05067 672-713): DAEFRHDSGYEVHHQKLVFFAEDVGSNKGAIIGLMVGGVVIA

C=C1CCC2C(C)(CCC=C(C)C)C(O)CCC2(C)C1Cc1c(OC)oc(CO)c(C)c1=O (stereo not drawn) [Compound 12]
Th-T fluorescence of Aβ42 (sheet Fig. 7a), mean of three wells (reading M73): 1.414
Th-T fluorescence of Aβ42 (sheet Fig. 7a), mean of three wells (reading M74): 1.457
Th-T fluorescence of Aβ42 (sheet Fig. 7a), mean of three wells (reading M75): 1.421
Th-T fluorescence of Aβ42 (sheet Fig. 7a), mean of three wells (reading M76): 1.415
Th-T fluorescence of Aβ42 (sheet Fig. 7a), mean of three wells (reading M77): 1.436
Th-T fluorescence of Aβ42 (sheet Fig. 7a), mean of three wells (reading M78): 1.437
Th-T fluorescence of Aβ42 (sheet Fig. 7a), mean of three wells (reading M79): 1.425
Th-T fluorescence of Aβ42 (sheet Fig. 7a), mean of three wells (reading M80): 1.423
Th-T fluorescence of Aβ42 (sheet Fig. 7a), mean of three wells (reading M81): 1.42
Th-T fluorescence of Aβ42 (sheet Fig. 7a), mean of three wells (reading M82): 1.419
Th-T fluorescence of Aβ42 (sheet Fig. 7a), mean of three wells (reading M83): 1.439
Th-T fluorescence of Aβ42 (sheet Fig. 7a), mean of three wells (reading M84): 1.415
Th-T assay plate reading, mean of three wells (Supplementary Fig. 47) (measurement M1): 0.2937
Th-T assay plate reading, mean of three wells (Supplementary Fig. 47) (measurement M2): 0.2498
Th-T assay plate reading, mean of three wells (Supplementary Fig. 47) (measurement M3): 0.2612
Th-T assay plate reading, mean of three wells (Supplementary Fig. 47) (measurement M4): 0.2666
Th-T assay plate reading, mean of three wells (Supplementary Fig. 47) (measurement M5): 0.2891
Th-T assay plate reading, mean of three wells (Supplementary Fig. 47) (measurement M6): 0.324
Th-T assay plate reading, mean of three wells (Supplementary Fig. 47) (measurement M7): 0.6238
Th-T assay plate reading, mean of three wells (Supplementary Fig. 47) (measurement M8): 1.342
Th-T assay plate reading, mean of three wells (Supplementary Fig. 47) (measurement M9): 1.95
Th-T assay plate reading, mean of three wells (Supplementary Fig. 47) (measurement M10): 2.214
Th-T assay plate reading, mean of three wells (Supplementary Fig. 47) (measurement M11): 2.313
Th-T assay plate reading, mean of three wells (Supplementary Fig. 47) (measurement M12): 2.311
Th-T assay plate reading, mean of three wells (Supplementary Fig. 47) (measurement M13): 2.302
Th-T assay plate reading, mean of three wells (Supplementary Fig. 47) (measurement M14): 2.328
Th-T assay plate reading, mean of three wells (Supplementary Fig. 47) (measurement M15): 2.358
Th-T assay plate reading, mean of three wells (Supplementary Fig. 47) (measurement M16): 2.3929
Th-T fluorescence, mean of three wells (Fig. 7a) (reading M107, compound at 10 (head suffix _10)): 2.747
Th-T fluorescence, mean of three wells (Fig. 7a) (reading M107, compound at 20 (head suffix _20)): 2.1149
Th-T fluorescence, mean of three wells (Fig. 7a) (reading M107, compound at 50 (head suffix _50)): 1.42
Th-T fluorescence, mean of three wells (Fig. 7a) (reading M108, compound at 10 (head suffix _10)): 2.748
Th-T fluorescence, mean of three wells (Fig. 7a) (reading M108, compound at 20 (head suffix _20)): 2.099
Th-T fluorescence, mean of three wells (Fig. 7a) (reading M108, compound at 50 (head suffix _50)): 1.438
Th-T fluorescence, mean of three wells (Fig. 7a) (reading M109, compound at 10 (head suffix _10)): 2.719
Th-T fluorescence, mean of three wells (Fig. 7a) (reading M109, compound at 20 (head suffix _20)): 2.112
Th-T fluorescence, mean of three wells (Fig. 7a) (reading M109, compound at 50 (head suffix _50)): 1.43
Th-T fluorescence, mean of three wells (Fig. 7a) (reading M110, compound at 10 (head suffix _10)): 2.701
Th-T fluorescence, mean of three wells (Fig. 7a) (reading M110, compound at 20 (head suffix _20)): 2.0943
Th-T fluorescence, mean of three wells (Fig. 7a) (reading M110, compound at 50 (head suffix _50)): 1.437
Th-T fluorescence, mean of three wells (Fig. 7a) (reading M111, compound at 10 (head suffix _10)): 2.678
Th-T fluorescence, mean of three wells (Fig. 7a) (reading M111, compound at 20 (head suffix _20)): 2.0886
Th-T fluorescence, mean of three wells (Fig. 7a) (reading M111, compound at 50 (head suffix _50)): 1.44
Th-T fluorescence, mean of three wells (Fig. 7a) (reading M112, compound at 10 (head suffix _10)): 2.674
Th-T fluorescence, mean of three wells (Fig. 7a) (reading M112, compound at 20 (head suffix _20)): 2.104
Th-T fluorescence, mean of three wells (Fig. 7a) (reading M112, compound at 50 (head suffix _50)): 1.449
Th-T fluorescence, mean of three wells (Fig. 7a) (reading M113, compound at 10 (head suffix _10)): 2.652
Th-T fluorescence, mean of three wells (Fig. 7a) (reading M113, compound at 20 (head suffix _20)): 2.1068
Th-T fluorescence, mean of three wells (Fig. 7a) (reading M113, compound at 50 (head suffix _50)): 1.457
Th-T fluorescence, mean of three wells (Fig. 7a) (reading M114, compound at 10 (head suffix _10)): 2.644
Th-T fluorescence, mean of three wells (Fig. 7a) (reading M114, compound at 20 (head suffix _20)): 2.09
Th-T fluorescence, mean of three wells (Fig. 7a) (reading M114, compound at 50 (head suffix _50)): 1.449
Th-T fluorescence, mean of three wells (Fig. 7a) (reading M115, compound at 10 (head suffix _10)): 2.617
Th-T fluorescence, mean of three wells (Fig. 7a) (reading M115, compound at 20 (head suffix _20)): 2.12
Th-T fluorescence, mean of three wells (Fig. 7a) (reading M115, compound at 50 (head suffix _50)): 1.466
Th-T fluorescence, mean of three wells (Fig. 7a) (reading M116, compound at 10 (head suffix _10)): 2.617
Th-T fluorescence, mean of three wells (Fig. 7a) (reading M116, compound at 20 (head suffix _20)): 2.1099
Th-T fluorescence, mean of three wells (Fig. 7a) (reading M116, compound at 50 (head suffix _50)): 1.496
Th-T fluorescence, mean of three wells (Fig. 7a) (reading M117, compound at 10 (head suffix _10)): 2.5929
Th-T fluorescence, mean of three wells (Fig. 7a) (reading M117, compound at 20 (head suffix _20)): 2.13
Th-T fluorescence, mean of three wells (Fig. 7a) (reading M117, compound at 50 (head suffix _50)): 1.473
Th-T fluorescence, mean of three wells (Fig. 7a) (reading M118, compound at 10 (head suffix _10)): 2.576
Th-T fluorescence, mean of three wells (Fig. 7a) (reading M118, compound at 20 (head suffix _20)): 2.113
Th-T fluorescence, mean of three wells (Fig. 7a) (reading M118, compound at 50 (head suffix _50)): 1.488
Th-T fluorescence, mean of three wells (Fig. 7a) (reading M119, compound at 10 (head suffix _10)): 2.572
Th-T fluorescence, mean of three wells (Fig. 7a) (reading M119, compound at 20 (head suffix _20)): 2.161
Th-T fluorescence, mean of three wells (Fig. 7a) (reading M119, compound at 50 (head suffix _50)): 1.496
Th-T fluorescence, mean of three wells (Fig. 7a) (reading M120, compound at 10 (head suffix _10)): 2.541
Th-T fluorescence, mean of three wells (Fig. 7a) (reading M120, compound at 20 (head suffix _20)): 2.1524
Th-T fluorescence, mean of three wells (Fig. 7a) (reading M120, compound at 50 (head suffix _50)): 1.517
Th-T fluorescence, mean of three wells (Fig. 7a) (reading M121, compound at 10 (head suffix _10)): 2.53
Th-T fluorescence, mean of three wells (Fig. 7a) (reading M121, compound at 20 (head suffix _20)): 2.137
Th-T fluorescence, mean of three wells (Fig. 7a) (reading M121, compound at 50 (head suffix _50)): 1.531
Th-T fluorescence, mean of three wells (Fig. 7a) (reading M122, compound at 10 (head suffix _10)): 2.517
Th-T fluorescence, mean of three wells (Fig. 7a) (reading M122, compound at 20 (head suffix _20)): 2.124
Th-T fluorescence, mean of three wells (Fig. 7a) (reading M122, compound at 50 (head suffix _50)): 1.501
Th-T fluorescence, mean of three wells (Fig. 7a) (reading M123, compound at 10 (head suffix _10)): 2.493
Th-T fluorescence, mean of three wells (Fig. 7a) (reading M123, compound at 20 (head suffix _20)): 2.112
Th-T fluorescence, mean of three wells (Fig. 7a) (reading M123, compound at 50 (head suffix _50)): 1.514
Th-T fluorescence, mean of three wells (Fig. 7a) (reading M124, compound at 10 (head suffix _10)): 2.48
Th-T fluorescence, mean of three wells (Fig. 7a) (reading M124, compound at 20 (head suffix _20)): 2.17
Th-T fluorescence, mean of three wells (Fig. 7a) (reading M124, compound at 50 (head suffix _50)): 1.559
Th-T fluorescence, mean of three wells (Fig. 7a) (reading M125, compound at 10 (head suffix _10)): 2.466
Th-T fluorescence, mean of three wells (Fig. 7a) (reading M125, compound at 20 (head suffix _20)): 2.169
Th-T fluorescence, mean of three wells (Fig. 7a) (reading M125, compound at 50 (head suffix _50)): 1.553
Th-T fluorescence, mean of three wells (Fig. 7a) (reading M126, compound at 10 (head suffix _10)): 2.458
Th-T fluorescence, mean of three wells (Fig. 7a) (reading M126, compound at 20 (head suffix _20)): 2.184
Th-T fluorescence, mean of three wells (Fig. 7a) (reading M126, compound at 50 (head suffix _50)): 1.559
Th-T fluorescence, mean of three wells (Fig. 7a) (reading M127, compound at 10 (head suffix _10)): 2.439
Th-T fluorescence, mean of three wells (Fig. 7a) (reading M127, compound at 20 (head suffix _20)): 2.22
Th-T fluorescence, mean of three wells (Fig. 7a) (reading M127, compound at 50 (head suffix _50)): 1.57
Th-T fluorescence, mean of three wells (Fig. 7a) (reading M128, compound at 10 (head suffix _10)): 2.428
Th-T fluorescence, mean of three wells (Fig. 7a) (reading M128, compound at 20 (head suffix _20)): 2.151
Th-T fluorescence, mean of three wells (Fig. 7a) (reading M128, compound at 50 (head suffix _50)): 1.57
Th-T fluorescence, mean of three wells (time-course reading M97): 2.083
Th-T fluorescence, mean of three wells (time-course reading M98): 2.088
Th-T fluorescence, mean of three wells (time-course reading M99): 2.073
Th-T fluorescence, mean of three wells (time-course reading M100): 2.078
Th-T fluorescence, mean of three wells (time-course reading M101): 2.074
Th-T fluorescence, mean of three wells (time-course reading M102): 2.082
Th-T fluorescence, mean of three wells (time-course reading M103): 2.066
Th-T fluorescence, mean of three wells (time-course reading M104): 2.071
Th-T fluorescence, mean of three wells (time-course reading M105): 2.058
Th-T fluorescence, mean of three wells (time-course reading M106): 2.067
Th-T fluorescence, mean of three wells (time-course reading M107): 2.067
Th-T fluorescence, mean of three wells (time-course reading M108): 2.064
Th-T fluorescence, mean of three wells (time-course reading M109): 2.047
Th-T fluorescence, mean of three wells (time-course reading M110): 2.071
Th-T fluorescence, mean of three wells (time-course reading M111): 2.087
Th-T fluorescence, mean of three wells (time-course reading M112): 2.064
Th-T fluorescence, mean of three wells (time-course reading M113): 2.068
Th-T fluorescence, mean of three wells (time-course reading M114): 2.053
Th-T fluorescence, mean of three wells (time-course reading M115): 2.069
Th-T fluorescence, mean of three wells (time-course reading M116): 2.057
